The record followed here is patent publication US11248013B2, “Tricyclic inhibitors of poly(ADP-ribose)polymerase” (Rakovina Therapeutics Inc., priority 2011, dated 2022).

PARP-1, sequence (P09874 whole entry): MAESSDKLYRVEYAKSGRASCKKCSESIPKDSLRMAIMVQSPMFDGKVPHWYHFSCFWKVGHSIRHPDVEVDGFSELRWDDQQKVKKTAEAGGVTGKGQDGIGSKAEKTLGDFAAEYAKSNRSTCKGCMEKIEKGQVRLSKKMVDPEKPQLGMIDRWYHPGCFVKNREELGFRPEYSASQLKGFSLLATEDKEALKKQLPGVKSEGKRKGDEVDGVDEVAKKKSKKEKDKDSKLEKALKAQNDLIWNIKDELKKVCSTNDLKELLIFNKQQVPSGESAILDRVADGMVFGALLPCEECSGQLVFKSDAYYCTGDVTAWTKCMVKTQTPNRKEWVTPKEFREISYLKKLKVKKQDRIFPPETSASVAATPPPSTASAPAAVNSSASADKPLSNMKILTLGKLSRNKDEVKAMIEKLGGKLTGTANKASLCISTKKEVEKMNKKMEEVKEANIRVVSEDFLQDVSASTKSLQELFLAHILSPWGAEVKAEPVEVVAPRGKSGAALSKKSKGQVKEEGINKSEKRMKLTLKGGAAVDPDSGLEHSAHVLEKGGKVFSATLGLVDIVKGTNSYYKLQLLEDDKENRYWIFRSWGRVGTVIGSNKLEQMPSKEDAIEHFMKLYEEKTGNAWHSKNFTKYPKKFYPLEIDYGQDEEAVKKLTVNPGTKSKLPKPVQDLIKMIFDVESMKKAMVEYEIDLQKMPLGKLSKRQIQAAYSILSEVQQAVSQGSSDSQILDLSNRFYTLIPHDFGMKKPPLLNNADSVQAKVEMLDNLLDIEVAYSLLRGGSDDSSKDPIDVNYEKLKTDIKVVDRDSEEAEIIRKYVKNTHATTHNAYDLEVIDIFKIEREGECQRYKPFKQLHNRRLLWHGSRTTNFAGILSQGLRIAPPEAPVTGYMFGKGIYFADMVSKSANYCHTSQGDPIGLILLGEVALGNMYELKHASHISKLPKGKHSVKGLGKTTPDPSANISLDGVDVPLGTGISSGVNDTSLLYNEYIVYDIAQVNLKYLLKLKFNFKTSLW

In this assay the target is PARP-1 (Homo sapiens (Human), UniProt P09874). The assay can be described thus: PARP-1 Enzyme Assay (HT Universal Colorimetric PARP Assay Kit). The note with it: OD450, read-out: IC50 (PARP-1 inhibition). In kind it is biochemical. As to the method:
Inhibition of PARP-1 enzymatic activities was measured using an HT Universal Colorimetric PARP Assay Kit (Trevigen, catalogue #4677-096-K) following the standard procedures.
Serial dilutions of PARP compounds were added to appropriate wells. The compound was incubated with PARP enzyme at RT for 10 min, and the reaction was initiated by addition of the PARP substrate cocktail, Each concentration of compound was tested in triplicate wells. After 15 min reaction, the reaction was stopped, and the Strep-HRP was added into each well and incubated for 1 h at RT. After addition of TACS-Sapphire™ colorimetric substrate and incubated in dark for 15 min, the OD450 was read out with an EnVision instrument. IC50 values (the concentration at which 50% of the enzyme activity is inhibited) were calculated, which are determined over a range of different concentrations, normally from 10 μM to 0.1 nM.
As a reminder, the IC50 is the concentration at which inhibition is half-maximal. On to `N#Cc1ccc(N2CCP(=O)(c3cc(Cc4n[nH]c(=O)c5ccccc45)ccc3F)CC2)nc1` [Example 14, 6-(4-(2-fluoro-5-((4-oxo-3,4-dihydrophthalazin-1-yl)methyl)phenyl)-4-oxido-1,4-azaphosphinan-1-yl)nicotinonitrile], for which the IC50 was under 100 nM. Then `O=c1[nH]nc(Cc2ccc(F)c(P3(=O)CCN(c4ccc(Cl)nn4)CC3)c2)c2ccccc12` [Example 13, 4-(3-(1-(6-chloropyridazin-3-yl)-4-oxido-1,4-azaphosphinan-4-yl)-4-fluorobenzyl)phthalazin-1(2H)-one], with under 100 nM; and `O=C(N1CCCC1)N1CCP(=O)(c2cc(Cc3n[nH]c(=O)c4ccccc34)ccc2F)CC1` [Example 10], with 100 to 1000 nM; and `CCN1CCP(=O)(c2cc(Cc3n[nH]c(=O)c4ccccc34)ccc2F)CC1` [Example 41, 4-(3-(1-ethyl-4-oxido-1,4-azaphosphinan-4-yl)-4-fluorobenzyl)phthalazin-1(2H)-one], with under 100 nM. Turning to `[2H]C([2H])(c1ccc(F)c(P2(=O)CCN(C3CC3)CC2)c1)c1n[nH]c(=O)c2cc(F)ccc12` [Example 55, 4-[(3-(1-cyclopropyl-4-oxido-1,4-azaphosphinan-4-yl)-4-fluorophenyl)dideuteromethyl]-7-fluorophthalazin-1 (2H)-one], the IC50 was under 100 nM. On to `O=c1[nH]nc(Cc2ccc(F)c(P3(=O)CCN(c4ccccn4)CC3)c2)c2ccccc12` [Example 19, 4-(4-fluoro-3-(4-oxido-1-(pyridin-2-yl)-1,4-azaphosphinan-4-yl)benzyl)phthalazin-1(2H)-one], for which the IC50 is under 100 nM.

As for `O=c1[nH]nc(Cc2ccc(F)c(P3(=O)CCN(c4ccc(C(F)(F)F)cn4)CC3)c2)c2ccccc12` [Example 24, 4-(4-fluoro-3-(4-oxido-1-(5-(trifluoromethyl)pyridin-2-yl)-1,4-azaphosphinan-4-yl)benzyl)phthalazin-1(2H)-one], the IC50 was under 100 nM. As to “4-(3-(1-(3,3-difluoropyrrolidine-1-carbonyl)-4-oxido-1,4-azaphosphinan-4-yl)-4-fluorobenzyl)phthalazin-1(2H)-one [Example 6]”, the IC50 is under 100 nM. The result for `O=c1[nH]nc(Cc2ccc(F)c(P3(=O)CCN(c4ncc5ccccc5n4)CC3)c2)c2ccccc12` [Example 30, 4-(4-fluoro-3-(4-oxido-1-(quinazolin-2-yl)-1,4-azaphosphinan-4-yl)benzyl)phthalazin-1(2H)-one] reads under 100 nM; that for `CC(C)N1CCP(=O)(c2cc(Cc3n[nH]c(=O)c4ccccc34)ccc2F)CC1` [Example 42, 4-(4-fluoro-3-(1-isopropyl-4-oxido-1,4-azaphosphinan-4-yl)benzyl)phthalazin-1(2H)-one], under 100 nM; that for `O=c1[nH]nc(Cc2ccc(F)c(P3(=O)CCN(CC(F)(F)F)CC3)c2)c2ccccc12` [Example 49, 4-(4-fluoro-3-(4-oxido-1-(2,2,2-trifluoroethyl)-1,4-azaphosphinan-4-yl)benzyl)phthalazin-1(2H)-one], under 100 nM.

With `CCCN1CCP(=O)(c2cc(Cc3n[nH]c(=O)c4ccccc34)ccc2F)CC1` [Example 45], the IC50 was under 100 nM. Consider “4-(3-(1-(cyclopropanecarbonyl)-4-oxido-1,4-azaphosphinan-4-yl)-4-fluorobenzyl)phthalazin-1(2H)-one [Example 3]”, for which the IC50 was under 100 nM.

As for `O=c1[nH]nc(Cc2ccc(F)c(P3(=O)CCN(c4ncccc4F)CC3)c2)c2ccccc12` [Example 23, 4-(4-fluoro-3-(1-(3-fluoropyridin-2-yl)-4-oxido-1,4-azaphosphinan-4-yl)benzyl)phthalazin-1(2H)-one], the IC50 was under 100 nM. The result for `O=c1[nH]nc(C(O)c2ccc(F)c(P3(=O)CCN(C4CC4)CC3)c2)c2ccccc12` (racemic) [Example 58, (±)-4-[(3-(1-cyclopropyl-4-oxido-1,4-azaphosphinan-4-yl)-4-fluoro-1-phenyl)(hydroxymethyl)]phthalazin-1(2H)-one] reads under 100 nM. The result for “4-(3-(1-(cyclobutanecarbonyl)-4-oxido-1,4-azaphosphinan-4-yl)-4-fluorobenzyl)phthalazin-1(2H)-one [Example 4]” reads under 100 nM. The result for `O=c1[nH]nc(Cc2ccc(F)c(P3(=O)CCN(c4cc(Cl)ncn4)CC3)c2)c2ccccc12` [Example 22, 4-(3-(1-(6-chloropyrimidin-4-yl)-4-oxido-1,4-azaphosphinan-4-yl)-4-fluorobenzyl)phthalazin-1(2H)-one] reads under 100 nM. For `O=c1[nH]nc(Cc2ccc(F)c(P3(=O)CCN(c4ncccc4C(F)(F)F)CC3)c2)c2ccccc12` [Example 27, 4-(4-fluoro-3-(4-oxido-1-(3-(trifluoromethyl)pyridin-2-yl)-1,4-azaphosphinan-4-yl)benzyl)phthalazin-1(2H)-one], the IC50 lay in the range of 100 to 1000 nM.

On to `O=c1[nH]nc(Cc2ccc(F)c(P3(=O)CCN(c4cccc(C(F)(F)F)n4)CC3)c2)c2ccccc12` [Example 31, 4-(4-fluoro-3-(4-oxido-1-(6-(trifluoromethyl)pyridin-2-yl)-1,4-azaphosphinan-4-yl)benzyl)phthalazin-1(2H)-one], for which the IC50 fell in the range of 100 to 1000 nM. On to `O=c1[nH]nc(Cc2ccc(F)c(P3(=O)CCN(CC4CC4)CC3)c2)c2ccccc12` [Example 43, 4-(3-(1-(cyclopropylmethyl)-4-oxido-1,4-azaphosphinan-4-yl)-4-fluorobenzyl)phthalazin-1(2H)-one], for which the IC50 is under 100 nM. The result for `O=c1[nH]nc(Cc2ccc(F)c(P3(=O)CCN(C4CCC4)CC3)c2)c2ccccc12` [Example 39, 4-(3-(1-cyclobutyl-4-oxido-1,4-azaphosphinan-4-yl)-4-fluorobenzyl)phthalazin-1(2H)-one] reads under 100 nM; that for `O=c1[nH]nc(Cc2ccc(F)c(P3(=O)CCN(Cc4ccccc4)CC3)c2)c2ccccc12` [Example 1, 4-(3-(1-benzyl-4-oxido-1,4-azaphosphinan-4-yl)-4-fluorobenzyl)phthalazin-1(2H)-one], under 100 nM; that for `O=c1[nH]nc(Cc2ccc(F)c(P3(=O)CCN(c4cccc(F)n4)CC3)c2)c2ccccc12` [Example 25, 4-(4-fluoro-3-(1-(6-fluoropyridin-2-yl)-4-oxido-1,4-azaphosphinan-4-yl)benzyl)phthalazin-1(2H)-one], under 100 nM.

As to `O=c1[nH]nc(Cc2ccc(F)c(P3(=O)CCN(C4CC4)CC3)c2)c2ccc(F)cc12` [Example 54, 4-(3-(1-cyclopropyl-4-oxido-1,4-azaphosphinan-4-yl)-4-fluorobenzyl)-7-fluorophthalazin-1(2H)-one], the half-inhibitory concentration (IC50) is under 100 nM.

Regarding `O=c1[nH]nc(Cc2ccc(F)c(P3(=O)CCN(C4CC4)CC3)c2)c2ccccc12` [Example 38, 4-(3-(1-cyclopropyl-4-oxido-1,4-azaphosphinan-4-yl)-4-fluorobenzyl)phthalazin-1(2H)-one], the IC50 is under 100 nM. The result for `N#Cc1cccnc1N1CCP(=O)(c2cc(Cc3n[nH]c(=O)c4ccccc34)ccc2F)CC1` [Example 16, 2-(4-(2-fluoro-5-((4-oxo-3,4-dihydrophthalazin-1-yl)methyl)phenyl)-4-oxido-1,4-azaphosphinan-1-yl)nicotinonitrile] reads under 100 nM.
